Source: patent US20030187007A1, “Inhibitors of protein kinase for the treatment of disease” (priority 2001, published 2003)
Counter-ions that a name gives are not always drawn.

Legend:
Format in all cases: biochemical
[1] = target: CDK2 complexed with cyclin A (Homo sapiens, UniProt P24941); test: Cyclin dependent kinase activity assay, phosphorylation of synthetic peptide PKTPKKAKKLRRR; details: 0.1 mM ATP, read-out: CDK 2 Activity*
Description: (§1) The assay of cyclin dependent kinase activity was determined by monitoring the phosphorylation of a synthetic peptide, PKTPKKAKKLRRR. The assay mixture contained 0.1 mM cold ATP, ^33P-γ-ATP (2000-4000 cpm/μL), 0.1 mM peptide, 1 mM DTT, and 10 mM MgCl2 in 100 mM HEPES buffer pH 7.4. The assay mixture, along with inhibitor and CDK enzyme (0.3-0.4 U/mL; either CDK5 complexed with p25, CDK2 complexed with complexed with cyclin A), was mixed together in a microtiter plate in a final volume of 40 μL, sealed and incubated for 2 hours at 30° C. Following incubation, a 15 μL aliquot was added to a Whatman P81 filtration plate containing 100 μL 0.5% phosphoric acid. This mixture was allowed to stand for 5 minutes prior to filtration on a vacuum manifold. The filter plate was washed with 5 successive additions of 300 μL 0.5% phosphoric acid. The filtration plate was air dried for 10 minutes before sealing the bottom. After addition of scintillation fluid to the sealed plate, phosphorylated peptide was quantified in a scintillation counter.

[2] = target: CDK5 complexed with p25 (Homo sapiens, UniProt Q00535); test: as above; details: CDK5 complexed with p25, 0.1 mM ATP; read-out: CDK 5 Activity*
Description: as §1

[3] = target: KDR (Homo sapiens, UniProt P35968); test: Enzyme assay for  (KDR), IC50 determination; details: 50 nM KDR, 500 μM ATP
Description: Enzyme assays for IC50 determinations were performed in 96-well titer plates, in a total reaction volume of 50 μL. Each reaction contained 1.5 μL of appropriate dilutions of inhibitor, 50 mM Hepes, pH 7.4, 1 mM DTT, 10 mM magnesium chloride, 2 mM phospho-poly(E4Y) (Sigma Chemical Company), 500 μM unlabeled ATP, 0.0025 μM [^33P]ATP (Amersham Pharmacia Biotech), and 50 nM KDR. All components except KDR were added to the wells, and the reaction was started by the addition of the enzyme. The reactions were mixed and incubated at room temperature for 1 hr, after which the reactions were quenched by the addition of 50 μL of 8% phosphoric acid. At this point, 90 μL aliquots of the samples were applied to positively charged DEAE 96-well filter plates (Millipore Corporation MADENOB10). The plates were incubated for 30 min at room temperature. The samples were aspirated and the wells were washed 3 times with 200 μL of 0.5% phosphoric acid. To each well, 50 μL of scintillation cocktail was added and counted for 60 sec in a TopCount microplate scintillation counter (Packard Instrument Company). The concentration of a compound that inhibited the activity of KDR by 50% (IC50) was determined based its inhibition curve.

Sequence of CDK5 complexed with p25 (Q00535 whole entry): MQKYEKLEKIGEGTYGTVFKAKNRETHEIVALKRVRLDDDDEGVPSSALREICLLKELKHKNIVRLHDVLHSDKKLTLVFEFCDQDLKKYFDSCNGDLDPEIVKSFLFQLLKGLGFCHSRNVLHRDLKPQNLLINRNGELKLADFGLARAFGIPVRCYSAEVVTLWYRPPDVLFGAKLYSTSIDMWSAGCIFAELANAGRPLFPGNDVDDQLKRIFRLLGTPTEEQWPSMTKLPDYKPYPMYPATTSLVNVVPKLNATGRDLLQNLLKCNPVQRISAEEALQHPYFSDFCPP
Sequence of CDK5 complexed with p25 (Q15078 99-307 partner limits assumed): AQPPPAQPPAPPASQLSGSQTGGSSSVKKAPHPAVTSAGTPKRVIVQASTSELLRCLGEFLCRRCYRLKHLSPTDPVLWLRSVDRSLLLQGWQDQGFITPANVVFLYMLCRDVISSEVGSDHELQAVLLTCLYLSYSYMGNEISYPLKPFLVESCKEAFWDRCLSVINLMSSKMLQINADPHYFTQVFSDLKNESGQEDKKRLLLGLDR
Sequence of KDR (P35968 20-1356): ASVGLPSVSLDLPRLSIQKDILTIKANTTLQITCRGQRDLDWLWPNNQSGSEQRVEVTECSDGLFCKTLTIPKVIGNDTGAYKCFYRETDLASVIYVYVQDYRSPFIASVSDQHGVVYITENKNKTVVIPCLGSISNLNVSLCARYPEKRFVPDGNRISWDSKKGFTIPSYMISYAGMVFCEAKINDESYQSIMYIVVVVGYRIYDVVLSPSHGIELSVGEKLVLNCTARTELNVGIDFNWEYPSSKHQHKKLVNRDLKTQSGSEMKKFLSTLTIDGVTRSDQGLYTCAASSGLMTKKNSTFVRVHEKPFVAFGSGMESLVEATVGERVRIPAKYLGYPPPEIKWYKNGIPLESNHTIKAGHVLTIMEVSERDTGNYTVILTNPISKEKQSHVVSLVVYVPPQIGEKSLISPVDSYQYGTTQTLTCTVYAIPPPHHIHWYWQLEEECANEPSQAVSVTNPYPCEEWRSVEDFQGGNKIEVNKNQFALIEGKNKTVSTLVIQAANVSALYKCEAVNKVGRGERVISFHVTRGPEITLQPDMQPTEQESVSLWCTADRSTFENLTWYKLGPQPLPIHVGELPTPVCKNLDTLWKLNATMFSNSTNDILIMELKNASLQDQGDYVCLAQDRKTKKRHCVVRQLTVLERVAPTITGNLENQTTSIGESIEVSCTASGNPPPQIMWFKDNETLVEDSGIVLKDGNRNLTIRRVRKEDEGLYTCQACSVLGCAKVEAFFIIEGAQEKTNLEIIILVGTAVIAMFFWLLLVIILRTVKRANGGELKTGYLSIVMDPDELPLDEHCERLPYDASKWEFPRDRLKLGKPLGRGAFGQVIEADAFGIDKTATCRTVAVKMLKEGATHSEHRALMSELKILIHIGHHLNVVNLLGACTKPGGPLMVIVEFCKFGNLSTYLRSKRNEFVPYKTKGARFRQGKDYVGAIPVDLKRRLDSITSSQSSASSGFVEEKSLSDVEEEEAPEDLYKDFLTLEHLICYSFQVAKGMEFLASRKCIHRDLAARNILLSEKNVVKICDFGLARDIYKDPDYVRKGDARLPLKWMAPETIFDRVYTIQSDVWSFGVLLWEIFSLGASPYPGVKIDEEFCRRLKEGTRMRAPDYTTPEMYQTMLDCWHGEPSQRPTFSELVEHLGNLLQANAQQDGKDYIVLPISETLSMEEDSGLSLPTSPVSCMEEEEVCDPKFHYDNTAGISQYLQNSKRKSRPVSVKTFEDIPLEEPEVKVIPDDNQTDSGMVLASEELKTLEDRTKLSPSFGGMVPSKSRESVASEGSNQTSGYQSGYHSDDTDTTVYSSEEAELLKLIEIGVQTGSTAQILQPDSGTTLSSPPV

Row | Compound | IC50 [1] [µM] | IC50 [2] [µM] | IC50 [3] [µM]
1 | NC(=O)N/N=C/c1cc(-c2ccc(O)cc2)ccc1O [Example 22, 5-(4-Hydroxyphenyl)salicylaldehyde semicarbazone hydrochloride] | < 0.5 | < 0.5 | 1 to 20
2 | NC(=S)N/N=C/c1cc(-c2ccc(O)c(F)c2)ccc1O [Example 23, 5-(3-Fluoro-4-hydroxyphenyl)salicylaldehyde thiosemicarbazone] | < 0.5 | < 0.5 | 1 to 20
3 | NC(=O)N/N=C/c1cc(-c2ccc(O)c(F)c2)ccc1O [Example 24, 5-(3-Fluoro-4-hydroxyphenyl)salicylaldehyde semicarbazone hydrochloride] | < 0.5 | < 0.5 | 1 to 20
4 | NC(=S)N/N=C/c1cc(-c2ccc3[nH]ccc3c2)ccc1O [Example 36, 5-(5-Indolyl)salicylaldehyde thiosemicarbazone] | < 0.5 | < 0.5 | 20 to 50
5 | Nc1nccc(-c2cc(-c3ccc(O)cc3)ccc2O)n1 [Example 57, 3-(2-Amino-pyrimidin-4-yl)-biphenyl-4,4′-diol] | < 0.5 | < 0.5 | < 1
6 | Nc1nc(-c2cc(-c3ccc(O)cc3)ccc2O)cs1 [Example 61, 3-(2-Amino-thiazol-4-yl)-biphenyl-4,4′-diol] | < 0.5 | < 0.5 | 1 to 20
7 | Nc1nc(-c2cc(-c3ccc(O)cc3)ccc2O)cc(N2CCC[C@@H]2CO)n1 [Example 80, 3-[2-Amino-6-(2S-hydroxymethyl-pyrrolidin-1-yl)-pyrimidin-4-yl]-biphenyl-4,4′-diol] | < 0.5 | < 0.5 | 1 to 20
8 | Nc1nc(-c2cc(-c3ccc(O)cc3)ccc2O)cc(N2CCOCC2)n1 [Example 81, 3-(2-Amino-6-morpholin-4-yl-pyrimidin-4-yl)-biphenyl-4,4′-diol] | < 0.5 | < 0.5 | 1 to 20
9 | Nc1nc(N[C@@H](CO)Cc2ccccc2)cc(-c2cc(-c3ccc(O)cc3)ccc2O)n1 [Example 86, 3-[2-Amino-6-(1R-benzyl-2-hydroxy-ethylamino)-pyrimidin-4-yl]-biphenyl-4,4′-diol] | < 0.5 | < 0.5 | 1 to 20
10 | Nc1nc(N[C@H](CO)Cc2ccccc2)cc(-c2cc(-c3ccc(O)cc3)ccc2O)n1 [Example 87, 3-[2-Amino-6-(1S-benzyl-2-hydroxy-ethylamino)-pyrimidin-4-yl]-biphenyl-4,4′-diol] | < 0.5 | < 0.5 | 1 to 20
11 | Nc1nc(-c2cccc([N+](=O)[O-])c2)cc(-c2cc(-c3ccc(O)cc3)ccc2O)n1 [Example 88, 3-[2-Amino-6-(3-nitro-phenyl)-pyrimidin-4-yl]-biphenyl-4,4′-diol] | < 0.5 | < 0.5 | 1 to 20
12 | Nc1nc(-c2ccc([N+](=O)[O-])cc2)cc(-c2cc(-c3ccc(O)cc3)ccc2O)n1 [Example 89, 3-[2-Amino-6-(4-nitro-phenyl)-pyrimidin-4-yl]-biphenyl-4,4′-diol] | < 0.5 | < 0.5 | 1 to 20
13 | Nc1cccc(-c2cc(-c3cc(-c4ccc(O)cc4)ccc3O)nc(N)n2)c1 [Example 91, 3-[2-Amino-6-(3-amino-phenyl)-pyrimidin-4-yl]-biphenyl-4,4′-diol] | < 0.5 | < 0.5 | < 1
14 | Nc1nc(-c2ccsc2)cc(-c2cc(-c3ccc(O)cc3)ccc2O)n1 [Example 113, 3-(2-Amino-6-thiophen-3-yl-pyrimidin-4-yl)-biphenyl-4,4′-diol] |  |  | 1 to 20
15 | Nc1nc(-c2ccc3[nH]ccc3c2)cc(-c2cc(-c3ccc(O)cc3)ccc2O)n1 [Example 114] |  |  | < 1
16 | Nc1nc(NCc2cccc(F)c2)cc(-c2cc(-c3ccc(O)cc3)ccc2O)n1 [Example 115, 3-[2-Amino-6-(3-fluoro-benzylamino)-pyrimidin-4-yl]-biphenyl-4,4′-diol] |  |  | 1 to 20
17 | Nc1nc(NCc2ccccc2F)cc(-c2cc(-c3ccc(O)cc3)ccc2O)n1 [Example 116] |  |  | < 1
18 | COc1cccc(CNc2cc(-c3cc(-c4ccc(O)cc4)ccc3O)nc(N)n2)c1 [Example 117, 3-[2-Amino-6-(3-methoxy-benzylamino)-pyrimidin-4-yl]-biphenyl-4,4′-diol] |  |  | < 1
19 | COc1ccc(CNc2cc(-c3cc(-c4ccc(O)cc4)ccc3O)nc(N)n2)cc1 [Example 118, 3-[2-Amino-6-(4-methoxy-benzylamino)-pyrimidin-4-yl]-biphenyl-4,4′-diol] |  |  | < 1
20 | Nc1nc(Nc2ccc(O)cc2F)cc(-c2cc(-c3ccc(O)cc3)ccc2O)n1 [Example 119, 3-[2-Amino-6-(2-fluoro-4-hydroxyphenylamino)-pyrimidin-4-yl]-biphenyl-4,4′-diol] |  |  | 1 to 20

More lines, now with the values ahead:

Row | IC50 [1] [µM] | IC50 [2] [µM] | IC50 [3] [µM] | Compound
21 | < 0.5 | < 0.5 | < 1 | NC(=S)N/N=C/c1cc(-c2ccc(O)c(O)c2)ccc1O [Example 25, 5-(3,4-Dihydroxyphenyl)salicylaldehyde thiosemicarbazone]
22 | < 0.5 | < 0.5 | < 1 | Nc1nc(N)nc(-c2cc(-c3ccc(O)cc3)ccc2O)n1 [Example 58, 3-(4.6-Diamino-[1,3,5]triazin-2-yl)-biphenyl-4,4′-diol]
23 | 0.5 to 2 | 0.5 to 2 | < 1 | Nc1nccc(-c2cc(-c3ccc(C=O)o3)ccc2O)n1 [Example 59, 5-[3-(2-Amino-pyrimidin-4-yl)-4-hydroxy-phenyl]-furan-2-carbaldehyde]
24 | 2 to 5 | < 0.5 | < 1 | Nc1nccc(-c2cc(-c3ccc4[nH]ccc4c3)ccc2O)n1 [Example 60, 2-(2-Amino-pyrimidin-4-yl)-4-(1H-indol-5-yl)-phenol]
25 | < 0.5 |  | < 1 | Nc1cc(-c2ccc(O)c(-c3ccnc(N)n3)c2)ccn1 [Example 67, 4-(2-Amino-pyridin-4-yl)-2-(2-amino-pyrimidin-4-yl)-phenol]
26 | < 0.5 | < 0.5 | < 1 | Nc1nc(-c2cc(-c3ccc(O)cc3)ccc2O)cc(-c2ccccc2CO)n1 [Example 83, 3-[2-Amino-6-(2-hydroxymethyl-phenyl)-pyrimidin-4-yl-biphenyl-4,4]-diol]
27 | < 0.5 | < 0.5 | < 1 | Nc1nc(-c2cccc(CO)c2)cc(-c2cc(-c3ccc(O)cc3)ccc2O)n1 [Example 84, 3-[2-Amino-6-(3-hydroxymethyl-phenyl)-pyrimidin-4-yl]-biphenyl-4,4′-diol]
28 | < 0.5 | < 0.5 | < 1 | Nc1nc(-c2ccc(CO)cc2)cc(-c2cc(-c3ccc(O)cc3)ccc2O)n1 [Example 85, 3-[2-Amino-6-(4-hydroxymethyl-phenyl)-pyrimidin-4-yl]-biphenyl-4,4′-diol]
29 | < 0.5 | < 0.5 | < 1 | Nc1ccc(-c2cc(-c3cc(-c4ccc(O)cc4)ccc3O)nc(N)n2)cc1 [Example 90, 3-[2-Amino-6-(4-amino-phenyl)-pyrimidin-4-yl]-biphenyl-4,4′-diol]
